Experimental data reported in US10189842B2 (Agency for Science, Technology and Research, priority 2013, dated 2019).
pIC50: −log10 of the molar value.

Tested on: HEK293-STF3A cells
Assay: STF3A assay (luciferase reporter)
Format: cell-based, Human
Settings: Homo sapiens, 24 h, 1 day of treatment
From the text: HEK293-STF cell line was modified from Human embryonic kidney cell line HEK293 transfected with the STF reporter. HEK293-STF3A cell line was further modified from HEK293-STF cell line to express Wnt3A. This cell line was used to identify compounds that regulate either early or late signaling components of the Wnt pathway. These two cell lines were obtained from David Virshup's laboratory, Duke-NUS. L-Wnt3A (ATCC, #CRL-2647) cell line was used for providing Wnt3A conditioned media. The three cell lines were grown in DMEM with 10% FBS incubated in 37° C. with 5% CO2.
2×10^4 HEK293-STF3A cells in 75 μl culture media were seeded in each well of white 96 well plates (Greiner #655098) and incubated overnight at 37° C. 25 μl serially diluted compound was added to the cells to give final concentration of 50 μM to 1.5 nM. After 1 day of treatment, 100 μl of Steady-Glo Luciferase Assay reagent (#E2520, Promega) was added to each well and incubated for 10 minutes at room temperature. Luminescence was measured using Tecan Safire2 plate reader.

Compound | pIC50
Cc1cc2n(n1)CCCN2C(=O)CCC(=O)Nc1ccc(-c2cccc(Cl)c2)nn1 [Compound 97, N-(6-(3-chlorophenyl)pyridazin-3-yl)-4-(2-methyl-6,7-dihydropyrazolo[1,5-a]pyrimidin-4(5H)-yl)-4-oxobutanamide] | > 7.00
Cc1cc2n(n1)CCCN2C(=O)CCC(=O)Nc1ccc(-c2cncc(Cl)c2)nc1 [Compound 108, N-(5′-chloro-[2,3′-bipyridin]-5-yl)-4-(2-methyl-6,7-dihydropyrazolo[1,5-a]pyrimidin-4(5H)-yl)-4-oxobutanamide] | > 7.00
Cc1cc2n(n1)CC(C)CN2C(=O)CCC(=O)Nc1cc(F)c(-c2cccnc2)cn1 (stereo not shown) [Compound 165, 4-(2,6-dimethyl-6,7-dihydropyrazolo[1,5-a]pyrimidin-4(5H)-yl)-N-(4-fluoro-[3,3′-bipyridin]-6-yl)-4-oxobutanamide] | > 7.00
Cc1cc2n(n1)CCCN2C(=O)CCC(=O)Nc1ccc(-c2cccnc2)cn1 [Compound 49, 4-{2-methyl-5H,6H,7H-pyrazolo[1,5-a]pyrimidin-4-yl}-4-oxo-N-[5-(pyridin-3-yl)pyridin-2-yl]butanamide] | > 7.00
Cc1cc2n(n1)CCCN2C(=O)CCC(=O)Nc1ccc(-c2ccc(F)cc2)nc1 [Compound 87, N-(6-(4-fluorophenyl)pyridin-3-yl)-4-(2-methyl-6,7-dihydropyrazolo[1,5-a]pyrimidin-4(5H)-yl)-4-oxobutanamide] | > 6.00
Cc1cc2n(n1)CCCN2C(=O)CCC(=O)Nc1ccc(-c2cnccn2)cc1 [Compound 129, 4-(2-methyl-6,7-dihydropyrazolo[1,5-a]pyrimidin-4(5H)-yl)-4-oxo-N-(4-(pyrazin-2-yl)phenyl)butanamide] | > 7.00
Cc1cc2n(n1)CCCN2C(=O)CCC(=O)Nc1cc(C)c(-c2cccnc2)cn1 [Compound 119, N-(4-methyl-3,3′-bipyridin-6-yl)-4-(2-methyl-6,7-dihydropyrazolo[1,5-a]pyrimidin-4(5H)-yl)-4-oxobutanamide] | > 5.30
Cc1cc2n(n1)CCCN2C(=O)CCC(=O)Nc1ccc(-c2cncc(F)c2)nn1 [Compound 103, N-(6-(5-fluoropyridin-3-yl)pyridazin-3-yl)-4-(2-methyl-6,7-dihydropyrazolo[1,5-a]pyrimidin-4(5H)-yl)-4-oxobutanamide] | > 7.00
Cc1cc2n(n1)CCCN2C(=O)C(C)CC(=O)Nc1cc(-c2cccc(Cl)c2)no1 (stereo not shown) [Compound 132, N-(3-(3-chlorophenyl)isoxazol-5-yl)-3-methyl-4-(2-methyl-6,7-dihydropyrazolo[1,5-a]pyrimidin-4(5H)-yl)-4-oxobutanamide] | < 5.00
Cc1cc2n(n1)CCCN2C(=O)CCC(=O)Nc1ncc(-c2ccccc2)cn1 [Compound 46, 4-{2-methyl-5H,6H,7H-pyrazolo[1,5-a]pyrimidin-4-yl}-4-oxo-N-(5-phenylpyrimidin-2-yl)butanamide] | > 6.00
Cc1cc2n(n1)CCCN2C(=O)CCC(=O)Nc1ccc(-c2cccc(Cl)c2)cn1 [Compound 88] | > 7.00
Cc1cc2n(n1)CC(C)CN2C(=O)CCC(=O)Nc1ccc(-c2ccc(F)cn2)cn1 (stereo not shown) [Compound 164, 4-(2,6-dimethyl-6,7-dihydropyrazolo[1,5-a]pyrimidin-4(5H)-yl)-N-(5-fluoro-[2,3′-bipyridin]-6′-yl)-4-oxobutanamide] | > 6.00
COc1cccc(-c2ccc(NC(=O)CCC(=O)N3CCCn4nc(C)cc43)cc2)c1 [Compound 62, N-(3′-methoxy-[1,1′-biphenyl]-4-yl)-4-(2-methyl-6,7-dihydropyrazolo[1,5-a]pyrimidin-4(5H)-yl)-4-oxobutanamide] | > 7.00
Cc1cc2n(n1)CCCN2C(=O)CCC(=O)Nc1ccc(-c2cnccn2)nc1 [Compound 166, 4-(2-methyl-6,7-dihydropyrazolo[1,5-a]pyrimidin-4(5H)-yl)-4-oxo-N-(6-(pyrazin-2-yl)pyridin-3-yl)butanamide] | > 6.00
Cc1ccc(-c2ccc(NC(=O)CCC(=O)N3CCCn4nc(C)cc43)nc2)cn1 [Compound 121, N-(6′-methyl-3,3′-bipyridin-6-yl)-4-(2-methyl-6,7-dihydropyrazolo[1,5-a]pyrimidin-4(5H)-yl)-4-oxobutanamide] | > 7.00
O=C(CCC(=O)N1CCCn2nccc21)Nc1cc(-c2cccc(Cl)c2)no1 [Compound 133, N-(3-(3-chlorophenyl)isoxazol-5-yl)-4-(6,7-dihydropyrazolo[1,5-a]pyrimidin-4(5H)-yl)-4-oxobutanamide] | < 5.00
Cc1cc2n(n1)CCCN2C(=O)CCC(=O)Nc1ccc(-c2ccncn2)cc1 [Compound 38, 4-(2-methyl-6,7-dihydropyrazolo[1,5-a]pyrimidin-4(5H)-yl)-4-oxo-N-(4-(pyrimidin-4-yl)phenyl)butanamide] | < 5.00

Compound | pIC50
Cc1cc2n(n1)CCCN2C(=O)CCC(=O)Nc1ccc(-c2ccc(F)cc2)cc1 [Compound 66, N-(4′-fluorobiphenyl-4-yl)-4-(2-methyl-6,7-dihydropyrazolo[1,5-a]pyrimidin-4(5H)-yl)-4-oxobutanamide] | > 6.00
Cc1cc2n(n1)CCCN2C(=O)CCC(=O)Nc1ccc(-c2cccc(Cl)c2)nc1 [Compound 83, N-(6-(3-chlorophenyl)pyridin-3-yl)-4-(2-methyl-6,7-dihydropyrazolo[1,5-a]pyrimidin-4(5H)-yl)-4-oxobutanamide] | > 7.00
Cc1cc2n(n1)CCCN2C(=O)CCC(=O)Nc1cc(-c2ccccc2)no1 [Compound 2, 4-(2-methyl-6,7-dihydropyrazolo[1,5-a]pyrimidin-4(5H)-yl)-4-oxo-N-(3-phenylisoxazol-5-yl)butanamide] | > 6.00
Cc1cc2n(n1)CCCN2C(=O)CCC(=O)Nc1ccc(-c2ccccc2)cc1 [Compound 33, N-([1,1′-biphenyl]-4-yl)-4-(2-methyl-6,7-dihydropyrazolo[1,5-a]pyrimidin-4(5H)-yl)-4-oxobutanamide] | > 7.00
Cc1cncc(-c2ncc(NC(=O)CCC(=O)N3CCCn4nc(C)cc43)cc2C)c1 [Compound 168, N-(3,5′-dimethyl-[2,3′-bipyridin]-5-yl)-4-(2-methyl-6,7-dihydropyrazolo[1,5-a]pyrimidin-4(5H)-yl)-4-oxobutanamide] | > 6.00
Cc1cc2n(n1)CCCN2C(=O)CCC(=O)Nc1ccc(-c2ccc(F)cc2)cn1 [Compound 90, N-(5-(4-fluorophenyl)pyridin-2-yl)-4-(2-methyl-6,7-dihydropyrazolo[1,5-a]pyrimidin-4(5H)-yl)-4-oxobutanamide] | > 7.00
Cc1cc2n(n1)CCCN2C(=O)CCC(=O)Nc1ccc(C2CCCCC2)cc1 [Compound 75, N-(4-cyclohexylphenyl)-4-(2-methyl-6,7-dihydropyrazolo[1,5-a]pyrimidin-4(5H)-yl)-4-oxobutanamide] | < 5.00
Cc1cc2n(n1)CCCN2C(=O)CCC(=O)Nc1ccc(-c2cccnc2)cc1 [Compound 35, 4-(2-methyl-6,7-dihydropyrazolo[1,5-a]pyrimidin-4(5H)-yl)-4-oxo-N-(4-(pyridin-3-yl)phenyl)butanamide] | > 7.00
Cc1cc2n(n1)CCCN2C(=O)CCC(=O)Nc1ccc(-c2ccccc2)c(C)c1 [Compound 54, 4-(2-methyl-6,7-dihydropyrazolo[1,5-a]pyrimidin-4(5H)-yl)-N-(2-methyl-[1,1′-biphenyl]-4-yl)-4-oxobutanamide] | > 7.00
Cc1cc2n(n1)CCCN2C(=O)CCC(=O)Nc1ccc(-c2ncccn2)cc1 [Compound 40, 4-{2-methyl-5H,6H,7H-pyrazolo[1,5-a]pyrimidin-4-yl}-4-oxo-N-[4-(pyrimidin-2-yl)phenyl]butanamide] | > 6.00
Cc1cc(NC(=O)CCC(=O)N2CCCn3nc(C)cc32)on1 [Compound 1, 4-(2-methyl-6,7-dihydropyrazolo[1,5-a]pyrimidin-4(5H)-yl)-N-(3-methylisoxazol-5-yl)-4-oxobutanamide] | < 5.00
Cc1cc2n(n1)CCCN2C(=O)CCC(=O)Nc1cc(-c2ccc(N)cc2)no1 [Compound 15, N-[3-(4-aminophenyl)-1,2-oxazol-5-yl]-4-{2-methyl-5H,6H,7H-pyrazolo[1,5-a]pyrimidin-4-yl}-4-oxobutanamide] | < 5.00
Cc1cccc(-c2ccc(NC(=O)CCC(=O)N3CCCn4nc(C)cc43)nn2)c1 [Compound 99, 4-(2-methyl-6,7-dihydropyrazolo[1,5-a]pyrimidin-4(5H)-yl)-4-oxo-N-(6-(m-tolyl)pyridazin-3-yl)butanamide] | > 7.00
Cc1cccc(-c2cnc(NC(=O)CCC(=O)N3CCCn4nc(C)cc43)cn2)c1 [Compound 126, 4-(2-methyl-6,7-dihydropyrazolo[1,5-a]pyrimidin-4(5H)-yl)-4-oxo-N-(5-(m-tolyl)pyrazin-2-yl)butanamide] | > 7.00
Cc1cc2n(n1)CCCN2C(=O)CCC(=O)Nc1cnc(-c2cccnc2)c(F)c1 [Compound 111, N-(3-fluoro-2,3′-bipyridin-5-yl)-4-(2-methyl-6,7-dihydropyrazolo[1,5-a]pyrimidin-4(5H)-yl)-4-oxobutanamide] | > 7.00
Cc1cncc(-c2ccc(NC(=O)C(C)CC(=O)N3CCCn4nc(C)cc43)nc2)c1 (stereo not shown) [Compound 152, 2-methyl-4-(2-methyl-6,7-dihydropyrazolo[1,5-a]pyrimidin-4(5H)-yl)-N-(5′-methyl-[3,3′-bipyridin]-6-yl)-4-oxobutanamide] | > 7.00
Cc1ccc(-c2ccc(NC(=O)CCC(=O)N3CCCn4nc(C)cc43)cc2)cc1 [Compound 60, 4-(2-methyl-6,7-dihydropyrazolo[1,5-a]pyrimidin-4(5H)-yl)-N-(4′-methyl-[1,1′-biphenyl]-4-yl)-4-oxobutanamide] | > 7.00
